Data: paper PMC10176470, “Engaging a Non-catalytic Cysteine Residue Drives Potent and Selective Inhibition of Caspase-6” (Journal of the American Chemical Society, 2023)

How the values were obtained:
Type in all cases: cell-based
[1] = target: proteins of HEK293T cells transiently overexpressing caspase-6 (Homo sapiens, UniProt P28838); conditions: exp_ref Probe; protein LAP3 (P28838); analysis C6
[2] = target: proteins of HEK293T cells transiently overexpressing caspase-6 (Homo sapiens, UniProt Q92688); conditions: protein ANP32B (Q92688)
Sequence of proteins of HEK293T cells transiently overexpressing caspase-6 (Homo sapiens, UniProt Q92688) (Q92688 whole entry): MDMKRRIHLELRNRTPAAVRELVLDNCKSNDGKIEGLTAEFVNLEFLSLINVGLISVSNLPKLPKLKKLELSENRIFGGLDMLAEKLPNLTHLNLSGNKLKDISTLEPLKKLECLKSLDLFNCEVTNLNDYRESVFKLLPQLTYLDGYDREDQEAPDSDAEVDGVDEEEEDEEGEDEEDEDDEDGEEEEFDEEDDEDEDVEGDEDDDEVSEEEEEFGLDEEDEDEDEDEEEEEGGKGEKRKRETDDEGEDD

[3] = target: proteins of HEK293T cells transiently overexpressing caspase-6 (Homo sapiens, UniProt P53396); conditions: exp_ref Probe; protein ACLY (P53396); analysis C6
Sequence of proteins of HEK293T cells transiently overexpressing caspase-6 (Homo sapiens, UniProt P53396) (P53396 whole entry): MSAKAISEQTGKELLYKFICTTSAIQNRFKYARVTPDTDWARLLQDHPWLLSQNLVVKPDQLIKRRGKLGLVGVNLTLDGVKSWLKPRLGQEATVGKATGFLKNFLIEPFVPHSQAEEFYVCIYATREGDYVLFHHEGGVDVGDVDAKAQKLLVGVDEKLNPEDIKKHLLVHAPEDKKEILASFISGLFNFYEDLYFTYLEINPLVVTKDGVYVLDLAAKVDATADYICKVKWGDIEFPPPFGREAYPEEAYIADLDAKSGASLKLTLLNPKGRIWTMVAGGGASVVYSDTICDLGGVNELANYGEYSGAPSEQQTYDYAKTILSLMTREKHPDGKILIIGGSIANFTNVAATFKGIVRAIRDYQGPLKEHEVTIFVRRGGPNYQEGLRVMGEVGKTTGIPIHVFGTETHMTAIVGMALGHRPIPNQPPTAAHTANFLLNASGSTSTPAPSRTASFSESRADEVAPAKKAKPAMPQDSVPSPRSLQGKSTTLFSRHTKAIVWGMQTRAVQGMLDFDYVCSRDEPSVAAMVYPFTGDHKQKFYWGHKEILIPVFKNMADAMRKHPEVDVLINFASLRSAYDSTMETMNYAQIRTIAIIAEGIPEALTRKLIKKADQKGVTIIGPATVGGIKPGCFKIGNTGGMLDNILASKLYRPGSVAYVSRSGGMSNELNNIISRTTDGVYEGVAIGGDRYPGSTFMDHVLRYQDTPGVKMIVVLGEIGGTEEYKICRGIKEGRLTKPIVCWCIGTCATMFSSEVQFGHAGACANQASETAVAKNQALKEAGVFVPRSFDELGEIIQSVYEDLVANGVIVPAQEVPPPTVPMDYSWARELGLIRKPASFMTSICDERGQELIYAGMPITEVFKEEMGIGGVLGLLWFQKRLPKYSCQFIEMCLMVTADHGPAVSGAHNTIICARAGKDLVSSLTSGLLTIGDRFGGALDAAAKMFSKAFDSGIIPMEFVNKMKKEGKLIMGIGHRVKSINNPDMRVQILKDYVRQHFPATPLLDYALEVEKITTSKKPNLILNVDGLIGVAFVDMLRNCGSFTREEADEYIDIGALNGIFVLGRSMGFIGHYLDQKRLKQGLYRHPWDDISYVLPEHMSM

[4] = target: proteins of HEK293T cells transiently overexpressing caspase-6 (Homo sapiens, UniProt O43143); conditions: exp_ref Probe; protein DHX15 (O43143); analysis C6
[5] = target: proteins of HEK293T cells transiently overexpressing caspase-6 (Homo sapiens, UniProt P08238); conditions: exp_ref Probe; protein HSP90AB1 (P08238); analysis C6
Sequence of proteins of HEK293T cells transiently overexpressing caspase-6 (Homo sapiens, UniProt P08238) (P08238 whole entry): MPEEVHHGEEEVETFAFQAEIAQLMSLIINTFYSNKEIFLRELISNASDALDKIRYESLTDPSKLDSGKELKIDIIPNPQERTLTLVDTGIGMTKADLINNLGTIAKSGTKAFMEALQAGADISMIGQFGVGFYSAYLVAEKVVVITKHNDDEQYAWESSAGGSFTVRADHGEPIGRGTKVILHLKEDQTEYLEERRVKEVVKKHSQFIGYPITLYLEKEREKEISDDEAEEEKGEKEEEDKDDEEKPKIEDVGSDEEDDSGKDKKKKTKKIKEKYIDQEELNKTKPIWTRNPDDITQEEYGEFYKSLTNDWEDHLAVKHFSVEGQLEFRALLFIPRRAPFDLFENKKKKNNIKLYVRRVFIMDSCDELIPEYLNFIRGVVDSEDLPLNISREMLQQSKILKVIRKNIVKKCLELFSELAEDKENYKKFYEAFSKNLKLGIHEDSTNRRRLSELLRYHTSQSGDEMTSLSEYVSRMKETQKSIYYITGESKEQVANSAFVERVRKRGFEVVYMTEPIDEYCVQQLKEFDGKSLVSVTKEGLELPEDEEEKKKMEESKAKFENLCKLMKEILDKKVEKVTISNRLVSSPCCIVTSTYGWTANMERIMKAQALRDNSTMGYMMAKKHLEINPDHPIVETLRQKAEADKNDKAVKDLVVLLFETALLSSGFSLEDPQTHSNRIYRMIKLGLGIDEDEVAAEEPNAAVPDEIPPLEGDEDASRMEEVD

[6] = target: proteins of HEK293T cells transiently overexpressing caspase-6 (Homo sapiens, UniProt Q07020); conditions: Probe; protein RPL18 Q07020
[7] = target: proteins of HEK293T cells transiently overexpressing caspase-6 (Homo sapiens, UniProt P50991); conditions: exp_ref Probe; protein CCT4 (P50991); analysis C6
Sequence of proteins of HEK293T cells transiently overexpressing caspase-6 (Homo sapiens, UniProt P50991) (P50991 whole entry): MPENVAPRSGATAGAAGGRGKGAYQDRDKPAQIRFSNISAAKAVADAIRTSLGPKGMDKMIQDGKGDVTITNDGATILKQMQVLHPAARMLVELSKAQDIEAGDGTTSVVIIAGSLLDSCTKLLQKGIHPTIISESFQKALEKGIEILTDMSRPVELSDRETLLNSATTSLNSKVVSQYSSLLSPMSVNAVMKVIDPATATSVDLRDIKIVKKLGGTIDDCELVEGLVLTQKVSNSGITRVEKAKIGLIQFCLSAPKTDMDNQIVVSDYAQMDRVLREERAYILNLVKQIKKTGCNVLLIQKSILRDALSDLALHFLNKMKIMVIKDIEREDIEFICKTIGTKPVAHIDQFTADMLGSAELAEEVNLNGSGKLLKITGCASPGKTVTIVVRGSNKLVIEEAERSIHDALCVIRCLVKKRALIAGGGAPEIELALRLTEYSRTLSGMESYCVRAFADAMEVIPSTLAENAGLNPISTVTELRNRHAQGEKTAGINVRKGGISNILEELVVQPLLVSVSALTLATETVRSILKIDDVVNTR

[8] = target: proteins of HEK293T cells transiently overexpressing caspase-6 (Homo sapiens, UniProt P62888); conditions: exp_ref Probe; protein RPL30 (P62888); analysis C6
[9] = target: proteins of HEK293T cells transiently overexpressing caspase-6 (Homo sapiens, UniProt Q9BVP2); conditions: exp_ref Probe; protein GNL3 (Q9BVP2); analysis C6
[10] = target: proteins of HEK293T cells transiently overexpressing caspase-6 (Homo sapiens, UniProt P00558); conditions: exp_ref Probe; protein PGK1 (P00558); analysis C6
Sequence of proteins of HEK293T cells transiently overexpressing caspase-6 (Homo sapiens, UniProt P00558) (P00558 whole entry): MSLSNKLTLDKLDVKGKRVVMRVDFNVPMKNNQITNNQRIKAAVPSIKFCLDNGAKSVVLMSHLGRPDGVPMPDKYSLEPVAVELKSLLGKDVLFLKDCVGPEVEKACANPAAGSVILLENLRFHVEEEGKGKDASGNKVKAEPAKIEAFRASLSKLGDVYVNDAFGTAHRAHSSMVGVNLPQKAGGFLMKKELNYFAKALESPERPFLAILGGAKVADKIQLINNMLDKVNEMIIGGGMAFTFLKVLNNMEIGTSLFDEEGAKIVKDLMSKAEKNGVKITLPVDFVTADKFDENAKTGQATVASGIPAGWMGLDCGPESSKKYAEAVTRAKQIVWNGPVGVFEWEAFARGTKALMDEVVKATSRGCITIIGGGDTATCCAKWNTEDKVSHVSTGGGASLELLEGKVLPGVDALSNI

[11] = target: proteins of HEK293T cells transiently overexpressing caspase-6 (Homo sapiens, UniProt Q99497); conditions: exp_ref Probe; protein PARK7 (Q99497); analysis C6
Sequence of proteins of HEK293T cells transiently overexpressing caspase-6 (Homo sapiens, UniProt Q99497) (Q99497 whole entry): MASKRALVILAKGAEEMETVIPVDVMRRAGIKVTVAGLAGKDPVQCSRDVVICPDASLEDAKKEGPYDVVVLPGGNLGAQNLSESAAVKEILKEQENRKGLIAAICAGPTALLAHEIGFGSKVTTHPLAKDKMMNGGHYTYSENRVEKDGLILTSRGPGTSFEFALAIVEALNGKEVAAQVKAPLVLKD

[12] = target: proteins of HEK293T cells transiently overexpressing caspase-6 (Homo sapiens, UniProt P23396); conditions: exp_ref Probe; protein RPS3 (P23396); analysis C6
[13] = target: proteins of HEK293T cells transiently overexpressing caspase-6 (Homo sapiens, UniProt Q13428); conditions: exp_ref Probe; protein TCOF1 (Q13428); analysis C6
[14] = target: proteins of HEK293T cells transiently overexpressing caspase-6 (Homo sapiens, UniProt P27348); conditions: exp_ref Probe; protein YWHAQ (P27348); analysis C6
Sequence of proteins of HEK293T cells transiently overexpressing caspase-6 (Homo sapiens, UniProt P27348) (P27348 whole entry): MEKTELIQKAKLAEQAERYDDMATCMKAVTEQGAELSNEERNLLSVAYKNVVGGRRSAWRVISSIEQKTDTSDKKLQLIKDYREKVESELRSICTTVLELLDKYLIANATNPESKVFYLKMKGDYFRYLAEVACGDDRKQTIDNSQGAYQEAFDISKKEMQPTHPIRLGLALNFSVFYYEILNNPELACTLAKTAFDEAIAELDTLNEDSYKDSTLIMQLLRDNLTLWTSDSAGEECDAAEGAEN

[15] = target: proteins of HEK293T cells transiently overexpressing caspase-6 (Homo sapiens, UniProt P48643); conditions: protein CCT5 (P48643)
Sequence of proteins of HEK293T cells transiently overexpressing caspase-6 (Homo sapiens, UniProt P48643) (P48643 whole entry): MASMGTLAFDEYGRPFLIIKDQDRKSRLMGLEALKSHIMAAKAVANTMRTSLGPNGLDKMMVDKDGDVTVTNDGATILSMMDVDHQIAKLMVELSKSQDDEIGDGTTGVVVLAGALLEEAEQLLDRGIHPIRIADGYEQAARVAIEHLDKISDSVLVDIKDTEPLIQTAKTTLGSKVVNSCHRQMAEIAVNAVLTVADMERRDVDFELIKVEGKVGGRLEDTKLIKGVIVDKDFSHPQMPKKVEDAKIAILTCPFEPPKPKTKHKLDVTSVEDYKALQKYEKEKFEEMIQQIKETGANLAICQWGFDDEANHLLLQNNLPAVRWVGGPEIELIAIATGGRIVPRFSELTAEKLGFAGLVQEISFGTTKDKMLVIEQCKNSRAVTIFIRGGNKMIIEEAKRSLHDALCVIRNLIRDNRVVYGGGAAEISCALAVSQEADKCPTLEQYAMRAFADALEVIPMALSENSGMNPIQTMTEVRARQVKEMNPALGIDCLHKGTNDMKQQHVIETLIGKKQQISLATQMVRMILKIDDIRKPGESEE

[16] = target: proteins of HEK293T cells transiently overexpressing caspase-6 (Homo sapiens, UniProt Q8NBS9); conditions: exp_ref Probe; protein TXNDC5 (Q8NBS9); analysis C6
Sequence of proteins of HEK293T cells transiently overexpressing caspase-6 (Homo sapiens, UniProt Q8NBS9) (Q8NBS9 33-432): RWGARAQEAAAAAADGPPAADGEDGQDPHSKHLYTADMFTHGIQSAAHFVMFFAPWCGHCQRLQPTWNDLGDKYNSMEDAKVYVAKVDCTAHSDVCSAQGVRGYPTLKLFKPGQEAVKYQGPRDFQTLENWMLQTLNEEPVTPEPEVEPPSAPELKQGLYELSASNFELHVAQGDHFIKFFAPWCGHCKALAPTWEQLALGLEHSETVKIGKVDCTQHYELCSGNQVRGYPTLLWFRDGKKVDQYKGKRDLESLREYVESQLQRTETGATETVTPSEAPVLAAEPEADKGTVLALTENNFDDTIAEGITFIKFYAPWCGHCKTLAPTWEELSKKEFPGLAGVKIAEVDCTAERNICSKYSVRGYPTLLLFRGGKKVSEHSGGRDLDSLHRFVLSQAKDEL

[17] = target: proteins of HEK293T cells transiently overexpressing caspase-6 (Homo sapiens, UniProt P02768); conditions: Probe; protein ALB P02768
Sequence of proteins of HEK293T cells transiently overexpressing caspase-6 (Homo sapiens, UniProt P02768) (P02768 25-609): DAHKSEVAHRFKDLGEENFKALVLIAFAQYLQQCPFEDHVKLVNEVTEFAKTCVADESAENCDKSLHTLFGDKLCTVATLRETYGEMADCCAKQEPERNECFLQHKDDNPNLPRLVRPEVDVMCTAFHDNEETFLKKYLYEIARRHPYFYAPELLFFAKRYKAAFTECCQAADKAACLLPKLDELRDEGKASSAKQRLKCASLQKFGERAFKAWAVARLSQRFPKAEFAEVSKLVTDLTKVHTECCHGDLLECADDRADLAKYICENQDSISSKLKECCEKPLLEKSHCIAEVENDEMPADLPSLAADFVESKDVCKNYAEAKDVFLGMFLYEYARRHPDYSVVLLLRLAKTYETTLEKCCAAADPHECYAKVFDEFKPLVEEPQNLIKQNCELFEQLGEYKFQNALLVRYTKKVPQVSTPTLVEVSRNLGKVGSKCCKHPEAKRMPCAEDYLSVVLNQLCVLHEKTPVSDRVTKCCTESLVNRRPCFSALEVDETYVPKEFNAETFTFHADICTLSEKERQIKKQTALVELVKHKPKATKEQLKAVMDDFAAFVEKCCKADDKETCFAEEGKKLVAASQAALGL

[18] = target: proteins of HEK293T cells transiently overexpressing caspase-6 (Homo sapiens, UniProt P13667); conditions: Probe; protein PDIA4 P13667
[19] = target: proteins of HEK293T cells transiently overexpressing caspase-6 (Homo sapiens, UniProt Q14166); conditions: exp_ref Probe; protein TTLL12 (Q14166); analysis C6
[20] = target: proteins of HEK293T cells transiently overexpressing caspase-6 (Homo sapiens, UniProt P18621); conditions: exp_ref Probe; protein RPL17 (P18621); analysis C6
[21] = target: T1, proteins of HEK293T cells transiently overexpressing caspase-6 (Homo sapiens, UniProt Q15942)
T1 sequence (Q15942 1-572): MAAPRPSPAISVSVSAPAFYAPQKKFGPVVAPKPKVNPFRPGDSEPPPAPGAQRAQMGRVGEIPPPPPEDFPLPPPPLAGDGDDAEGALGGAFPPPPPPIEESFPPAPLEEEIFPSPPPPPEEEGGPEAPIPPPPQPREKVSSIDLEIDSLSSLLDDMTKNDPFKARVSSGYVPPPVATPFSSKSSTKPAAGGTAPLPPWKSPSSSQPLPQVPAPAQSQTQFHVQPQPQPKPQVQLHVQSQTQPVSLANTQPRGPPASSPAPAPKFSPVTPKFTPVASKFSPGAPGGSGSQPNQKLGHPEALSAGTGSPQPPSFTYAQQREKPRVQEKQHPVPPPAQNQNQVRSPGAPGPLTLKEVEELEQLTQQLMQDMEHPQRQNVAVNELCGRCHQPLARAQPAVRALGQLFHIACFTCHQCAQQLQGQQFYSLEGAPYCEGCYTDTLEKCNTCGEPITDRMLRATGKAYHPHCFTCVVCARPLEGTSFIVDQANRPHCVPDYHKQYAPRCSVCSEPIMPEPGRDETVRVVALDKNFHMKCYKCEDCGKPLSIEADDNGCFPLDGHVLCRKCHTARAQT

[22] = target: proteins of HEK293T cells transiently overexpressing caspase-6 (Homo sapiens, UniProt P49321); conditions: exp_ref Probe; protein NASP (P49321); analysis C6

C#CCOc1ccc([C@@H]2C[C@@H](C(=O)Nc3ccc(OC(F)(F)F)cc3)CN(S(=O)(=O)C=C)C2)cc1 (relative stereo) [13-t]
enrich.exp.med [1]: 0.6337 | enrich.exp.med.lin [2]: 4.217 | enrich.exp.med.log2 [2]: 2.0761 | enrich.exp.med ([2]; exp_ref Probe, analysis C6): 2.0761 | enrich.exp.med [3]: -0.1134 | enrich.exp.med [4]: 1.187 | enrich.exp.med [5]: 0.3736 | enrich.exp.med [6]: -0.6313 | enrich.exp.med [7]: 0.3881 | enrich.exp.med [8]: 0.3258 | enrich.exp.med [9]: 0.541 | enrich.exp.med [10]: 0.1871 | enrich.exp.med [11]: 0.478 | enrich.exp.med [12]: 0.6101 | enrich.exp.med [13]: 0.9444 | enrich.exp.med [14]: 0.7591 | enrich.exp.med ([15]; exp_ref Probe, analysis C6): 0.7352 | enrich.exp.med.lin [15]: 1.665 | enrich.exp.med.log2 [15]: 0.7352 | enrich.exp.med [16]: 0.5284 | enrich.exp.med [17]: -8.362 | enrich.exp.med [18]: -0.4487 | enrich.exp.med [19]: -0.1545 | enrich.exp.med [20]: 0.5148 | enrich.exp.med ([21]; Probe, protein ZYX Q15942): -1.696 | enrich.exp.med.lin ([21]; protein ZYX (Q15942)): 0.3087 | enrich.exp.med.log2 ([21]; protein ZYX (Q15942)): -1.696 | enrich.exp.med [22]: 0.1581
